Measured values: patent publication US10696615B2, “Prenylated hydroxystilbenes” (The University of Sydney, priority 2011, dated 2020)

Assays:
MOLT-4 = experiment: NCI in vitro cancer screen, Leukemia; assay type: cell-based, human; details: MOLT-4
HOP-92 = experiment: NCI in vitro cancer screen, Non-Small Cell Lung Cancer; assay type: cell-based, human; details: HOP-92
NCI-H226 = experiment: as above; assay type: cell-based, human; details: NCI-H226
NCI-H23 = experiment: as above; assay type: cell-based, human; details: NCI-H23
NCI-H460 = experiment: as above; assay type: cell-based, human; details: NCI-H460
NCI-H522 = experiment: as above; assay type: cell-based, human; details: NCI-H522
KM12 = experiment: NCI in vitro cancer screen, Colon Cancer; assay type: cell-based, human; details: KM12
SW-620 = experiment: NCI in vitro cancer screen, Colon Cancer; assay type: cell-based, human; details: SW-620
SF-295 = experiment: NCI in vitro cancer screen, CNS Cancer; assay type: cell-based, human; details: SF-295
SF-539 = experiment: NCI in vitro cancer screen, CNS Cancer; assay type: cell-based; details: SF-539
SNB-19 = experiment: NCI in vitro cancer screen, CNS Cancer; assay type: cell-based, human; details: SNB-19
U251 = experiment: NCI in vitro cancer screen, CNS Cancer; assay type: cell-based, human; details: U251
LOX IMVI = experiment: NCI in vitro cancer screen, Melanoma; assay type: cell-based, human
MALME-3M = experiment: NCI in vitro cancer screen, Melanoma; assay type: cell-based, human
MDA-MB-435 = experiment: NCI in vitro cancer screen, Melanoma; assay type: cell-based, human; details: MDA-MB-435
SK-MEL-28 = experiment: NCI in vitro cancer screen, Melanoma; assay type: cell-based, human; details: SK-MEL-28
UACC-257 = experiment: NCI in vitro cancer screen, Melanoma; assay type: cell-based, human; details: UACC-257
IGROV1 = experiment: NCI in vitro cancer screen, Ovarian Cancer; assay type: cell-based, human; details: IGROV1
A498 = experiment: NCI in vitro cancer screen, Renal Cancer; assay type: cell-based, human; details: A498
CAKI-1 = experiment: NCI in vitro cancer screen, Renal Cancer; assay type: cell-based, human; details: CAKI-1
SN12C = experiment: NCI in vitro cancer screen, Renal Cancer; assay type: cell-based, human
TK-10 = experiment: NCI in vitro cancer screen, Renal Cancer; assay type: cell-based, human; details: TK-10
UO-31 = experiment: NCI in vitro cancer screen, Renal Cancer; assay type: cell-based, human; details: UO-31
PC-3 = experiment: NCI in vitro cancer screen, Prostate Cancer; assay type: cell-based, human; details: PC-3
MCF7 = experiment: NCI in vitro cancer screen, Breast Cancer; assay type: cell-based, human; details: MCF7
[1] = system: MDA-MB-231 (MDA-MB-231/ATCC); experiment: NCI in vitro cancer screen, Breast Cancer; assay type: cell-based, human; details: MDA-MB-231
MDA-MB-468 = experiment: NCI in vitro cancer screen, Breast Cancer; assay type: cell-based, human; details: MDA-MB-468
[2] = Homo sapiens, read-out: LC50 (the source's name)

Compound: CC(C)=CCc1c(O)cc(/C=C/c2ccc(O)c(O)c2)c(CC=C(C)C)c1O [USYDS7, (E)-2,4-di(3-methyl-2-buten-1-yl)-3,3′,4′,5-tetrahydroxystilbene]
- GI50 (MOLT-4; Homo sapiens): 2.01 µM
- CC50 (MOLT-4; [2]): 26.5 µM
- TGI (MOLT-4): 5.19 µM
- TGI (HOP-92): 4.21 µM
- GI50 (HOP-92; Homo sapiens): 1.52 µM
- CC50 (HOP-92; [2]): 14.2 µM
- GI50 (NCI-H226; Homo sapiens): 2.28 µM
- LC50 (50% lethal concentration) (NCI-H226; Homo sapiens): 28.1 µM
- TGI (NCI-H226): 6.24 µM
- GI50 (NCI-H23; Homo sapiens): 1.81 µM
- LC50 (NCI-H23; Homo sapiens): 29.5 µM
- TGI (NCI-H23): 5.22 µM
- GI50 (NCI-H460; Homo sapiens): 1.64 µM
- CC50 (NCI-H460; [2]): 6.33 µM
- TGI (NCI-H460): 3.22 µM
- GI50 (NCI-H522; Homo sapiens): 1.61 µM
- CC50 (NCI-H522; [2]): 7.92 µM
- TGI (NCI-H522): 3.57 µM
- GI50 (KM12; Homo sapiens): 1.93 µM
- CC50 (KM12; [2]): 7.79 µM
- TGI (KM12): 3.88 µM
- GI50 (SW-620; Homo sapiens): 1.58 µM
- CC50 (SW-620; [2]): 6.42 µM
- TGI (SW-620): 3.19 µM
- GI50 (SF-295; Homo sapiens): 3.37 µM
- CC50 (SF-295; [2]): 44.6 µM
- TGI (SF-295): 11.4 µM
- GI50 (SF-539; Homo sapiens): 2.21 µM
- CC50 (SF-539; [2]): 35.2 µM
- TGI (SF-539): 6.14 µM
- GI50 (SNB-19; Homo sapiens): 2.8 µM
- CC50 (SNB-19; [2]): 39.9 µM
- TGI (SNB-19): 8.64 µM
- GI50 (U251; Homo sapiens, U-251): 1.49 µM
- CC50 (U251; Homo sapiens, U-251, read-out: LC50 (the source's name)): 5.74 µM
- TGI (U251): 2.93 µM
- TGI (LOX IMVI): 3.41 µM
- GI50 (LOX IMVI; Homo sapiens): 1.71 µM
- CC50 (LOX IMVI; [2]): 6.81 µM
- GI50 (MALME-3M; Homo sapiens, Malme-3M): 1.97 µM
- CC50 (MALME-3M; Homo sapiens, Malme-3M, read-out: LC50 (the source's name)): 10.4 µM
- TGI (MALME-3M; MALME-3M): 4.46 µM
- GI50 (MDA-MB-435; Homo sapiens): 2.29 µM
- CC50 (MDA-MB-435; [2]): 31.7 µM
- TGI (MDA-MB-435): 6.47 µM
- GI50 (SK-MEL-28; Homo sapiens): 3.65 µM
- LC50 (SK-MEL-28; Homo sapiens): 36.7 µM
- TGI (SK-MEL-28): 11.8 µM
- GI50 (UACC-257; Homo sapiens): 2.18 µM
- CC50 (UACC-257; [2]): 23 µM
- TGI (UACC-257): 5.93 µM
- GI50 (IGROV1; Homo sapiens, IGROV-1): 3.12 µM
- CC50 (IGROV1; Homo sapiens, IGROV-1, read-out: LC50 (the source's name)): 36.7 µM
- TGI (IGROV1): 8.39 µM
- TGI (A498): 23.8 µM
- GI50 (A498; Homo sapiens): 11.1 µM
- CC50 (A498; [2]): 50.8 µM
- TGI (CAKI-1): 16.2 µM
- GI50 (CAKI-1; Homo sapiens): 4.24 µM
- CC50 (CAKI-1; [2]): 49 µM
- TGI (SN12C): 3.16 µM
- GI50 (SN12C; Homo sapiens): 1.65 µM
- CC50 (SN12C; [2]): 6.03 µM
- GI50 (TK-10; Homo sapiens): 3.62 µM
- LC50 (TK-10; Homo sapiens): 34.3 µM
- TGI (TK-10): 11.2 µM
- GI50 (UO-31; Homo sapiens): 1.6 µM
- CC50 (UO-31; [2]): 7.46 µM
- TGI (UO-31): 3.46 µM
- GI50 (PC-3; Homo sapiens): 2.02 µM
- CC50 (PC-3; [2]): 11.3 µM
- TGI (PC-3): 4.57 µM
- GI50 (MCF7; Homo sapiens): 2.1 µM
- CC50 (MCF7; [2]): 57.9 µM
- TGI (MCF7): 12.0 µM
- GI50 ([1]; Homo sapiens): 1.49 µM
- CC50 [1, 2]: 10.7 µM
- TGI [1]: 3.89 µM
- GI50 (MDA-MB-468; Homo sapiens): 2.12 µM
- CC50 (MDA-MB-468; [2]): 13.9 µM
- TGI (MDA-MB-468): 4.84 µM
